Assay results published in US9346780B2, “Process for producing dihydro-2H-pyran derivatives” (OKINAWA INSTITUTE OF SCIENCE AND TECHNOLOGY SCHOOL …, priority 2012, dated 2016).

Assay: Cytotoxicity, K562 cell growth inhibition (Cell Counting Kit-8 / WST-8)
Type: cell-based
Settings: human; K562 cells; 6-48 hrs incubation; WST-8 absorbance at 450 nm; concentration inhibiting the cell growth by 50%
Description: K562 cells (American Type Culture Collection) were cultured in a culture medium containing 10% (v/v) fetal calf serum (FCS) (manufactures by Sigma) to logarithmic phase. The cells were seeded in 96-well microtiter plate at a density of 5000 cells/well in 100 μL cell culture medium and incubated at 37° C. and 5% CO2 in a humidified incubator overnight. The test compounds of various concentrations were added in a well at 10 fold concentration in 1/10 volume of medium without FCS. After 6-48 hrs incubation at 37° C. in the CO2 incubator, 10 μL solution of the viable cell counting reagent, Cell counting Kit-8 (5 mmol/L WST-8, 0.2 mmol/L 1-Methoxy PMS, 150 mmol/L NaCl) (manufactured by Dojindo) was added to each well, and reacted for 1 to 4 hours in the CO2 incubator. After the incubation, an absorbance of formazan, generated by reduction of WST-8 was determined at 450 nm using a microplate reader.
The assay readout is correlated with the viable cell numbers. Small values correspond to high inhibition and larger values to low inhibition of the cell growth. To determine IC50 values (i.e. the concentration inhibiting the cell growth by 50%) of the compounds of formula II, IV and V, several assays were made with a range of concentrations chosen empirically to give low, high and intermediate inhibition of the growth and determined using the curve fitting software.
IC50 values can be converted logarithmically to pIC50 values (−log IC50), in which higher values indicate exponentially greater potency. The IC50 value is not an absolute value but depends on experimental conditions e.g. concentrations employed.
With `O=C(OCc1ccccc1)C1=CC(c2ccccc2)CC(O)(C(=O)OCc2ccccc2)O1` (stereo not drawn) the IC50 was 149 µM.
Work on `CCOC(=O)C1=CC(C2CCCCC2)CC(O)(C(=O)OCC)O1` (stereo not drawn) yielded an IC50 of 58 µM.
Work on `CCOC(=O)C1=CC(c2ccc(Br)cc2)CC(O)(C(=O)OCC)O1` (stereo not drawn) yielded an IC50 of 80 µM.
`COC(=O)C1=CC(c2ccc([N+](=O)[O-])cc2)CC(O)(C(=O)OCc2ccccc2)O1` (stereo not drawn) gave an IC50 of 81 µM.
In the case of `CCOC(=O)C1=CC(c2ccc([N+](=O)[O-])cc2)CC(Nc2ccc(OC)cc2)(C(=O)OCC)O1` (stereo not drawn), the IC50 is reported as 12 µM.
Compound `CCOC(=O)C1=CC(c2ccc([N+](=O)[O-])cc2)CC(F)(C(=O)OCC)O1` (stereo not drawn) has an IC50 of 11 µM.
With `CCOC(=O)C1=CC(c2ccc(Cl)cc2)CC(F)(C(=O)OCC)O1` (stereo not drawn) the IC50 was 52 µM.
With `CCOC(=O)C1=CC(c2ccc(Br)cc2)CC(F)(C(=O)OCC)O1` (stereo not drawn) the IC50 was 53 µM.
With `CCOC(=O)C1=CC(c2ccco2)CC(F)(C(=O)OCC)O1` (stereo not drawn) the IC50 was 135 µM.
`CCOC(=O)C1=CC(c2ccc([N+](=O)[O-])cc2)CC(C(=O)OCC)=NN1` (stereo not drawn) showed an IC50 of 148 µM.
`O=C(OCc1ccccc1)[C@]1(O)C[C@H](c2ccccc2)C[C@](O)(C(=O)OCc2ccccc2)[C@H]1[N+](=O)[O-]` showed an IC50 of 54 µM.
Compound `COC(=O)[C@@]1(O)C[C@@H](c2ccc([N+](=O)[O-])cc2)C[C@@](O)(C(=O)OCc2ccccc2)[C@@H]1[N+](=O)[O-]` has an IC50 of 90 µM.
For `CCOC(=O)[C@]1(O)C[C@H](c2ccc(C(F)(F)F)cc2)C[C@](O)(C(=O)OCC)[C@H]1[N+](=O)[O-]`, the IC50 was 144 µM.
Compound `CCOC(=O)[C@]1(O)C[C@H](c2ccc(Br)cc2)C[C@](O)(C(=O)OCC)[C@H]1[N+](=O)[O-]` has an IC50 of 144 µM.
`CCOC(=O)[C@]1(O)C[C@H](C2CCCCC2)C[C@](O)(C(=O)OCC)[C@H]1[N+](=O)[O-]` gave an IC50 of 105 µM.
